According to ChEMBL document CHEMBL1123726, “Resolution of racemic carbocyclic analogues of purine nucleosides through the action of adenosine deaminase. Antiviral activity of the carbocyclic 2'-deoxyguanosine enantiomers” (1987):
≈ marks a conversion by molar mass, not a printed value.

Columns and labels:
[1] = system: Vero; test: Compound was evaluated for the virus rating (VR) in test 1 against Herpes simplex virus type 1 (HSV-1) in vero cells.; assay type: functional, Chlorocebus sabaeus
[2] = system: Vero; test: Compound was evaluated for the virus rating (VR) in test 2 against Herpes simplex virus type 1 (HSV-1) in vero cells.; assay type: functional, Chlorocebus sabaeus
[3] = species: Oryctolagus cuniculus; test: Compound was evaluated for the virus rating (VR) against Herpes simplex virus type 2 (HSV-2) in rabbit kidney cells; assay type: functional
[4] = species: Oryctolagus cuniculus; test: Minimum inhibitory concentration against strain MS Herpes simplex virus type 2 (HSV-2) in rabbit kidney cells; assay type: functional
[5] = species: Oryctolagus cuniculus; test: Compound was evaluated for the virus rating (VR) against Herpes simplex virus type 1 (HSV-1) in rabbit kidney cells.; assay type: functional
[6] = species: Oryctolagus cuniculus; test: Minimum inhibitory concentration against strain 377 (TK+) Herpes simplex virus type 1 (HSV-1) in rabbit kidney cells.; assay type: functional
[7] = system: Vero; test: Minimum inhibitory concentration was determined for inhibition of cytopathogenic effects produced by strain 377 (TK+) Herpes simplex virus type 1 (HSV-1) in vero cells.; assay type: functional, cell-based; conditions: Chlorocebus sabaeus
[8] = system: Vero; test: Minimum inhibitory concentration was determined for inhibition of cytopathogenic effects produced by strain MS Herpes simplex virus type 2 (HSV-2) in vero cells.; assay type: functional, cell-based; conditions: Chlorocebus sabaeus
[9] = Oryctolagus cuniculus, read-out: MIC50

For Nc1nc2c(ncn2[C@H]2C[C@@H](CO)[C@H](O)C2)c(=O)[nH]1, the VR [1] was 0.8 and the VR [2] was 1.1.

For Nc1nc(O)c2ncn([C@@H]3C[C@H](CO)[C@@H](O)C3)c2n1 (stereo in doubt; 4b), the VR [3] was 3.8, the MIC50 [4, 9] was 0.7 µg/mL (≈ 2.64 µM) and the VR [5] was 5.9. For the same compound, the MIC50 [6, 9] was 0.3 µg/mL (≈ 1.13 µM).

Nc1nc(O)c2ncn([C@@H]3C[C@H](CO)[C@@H](O)C3)c2n1 (stereo in doubt; 4b+5b) showed a VR [3] of 3.7, an MIC50 [4] of 0.8 µg/mL (≈ 3.02 µM) and a VR [5] of 7. For the same compound, the MIC50 [6] was 0.3 µg/mL (≈ 1.13 µM).

For Nc1nc(N)c2ncn(C3CC(O)C(CO)C3)c2n1 (configuration not stated), the MIC50 [7] was “Minimum inhibitory concentration was determined for inhibition of cytopathogenic effects produced by strain MS Herpes simplex virus type 2 (HSV-2) in vero cells” and the MIC50 [8] was “Minimum inhibitory concentration was determined for inhibition of cytopathogenic effects produced by strain MS Herpes simplex virus type 2 (HSV-2) in vero cells”.
